In brackets after ≈: the same amount, converted by molar mass.
What was measured:
Escherichia coli = test: Antibacterial activity against Escherichia coli; type: functional
Staphylococcus capitis = test: Antibacterial activity against Staphylococcus capitis; type: functional
[1] = target: Peptide deformylase (Escherichia coli) (UniProt P0A6K3); test: Inhibition against Escherichia coli Peptide deformylase was measured at a concentration of 1 uM
Peptide deformylase (Escherichia coli), sequence (P0A6K3 whole entry, looked up): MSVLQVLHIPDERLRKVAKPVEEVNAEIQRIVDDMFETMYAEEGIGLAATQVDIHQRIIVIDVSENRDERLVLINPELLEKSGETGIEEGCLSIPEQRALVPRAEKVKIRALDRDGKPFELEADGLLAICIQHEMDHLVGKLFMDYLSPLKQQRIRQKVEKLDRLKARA

Structure (SMILES)	MIC (Escherichia coli) [µM]	MIC (Staphylococcus capitis) [µM]	inhibition [1] [%]
CN(C)C(=O)[C@@H](NC(=O)[C@@H](CN(O)C=O)C1CCCC1)C(C)(C)C	> 200	> 200	–
CCCCCCC[C@H](CN(O)C=O)C(=O)N[C@H](C(=O)N(C)C)C(C)(C)C	> 200	> 200	–
COc1ccc(C[C@H](CN(O)C=O)C(=O)N[C@H](C(=O)N(C)C)C(C)(C)C)cc1	> 200	> 200	–
CCCCCCCC[C@H](CN(O)C=O)C(=O)N[C@H](C(=O)N(C)C)C(C)(C)C	> 200	> 200	–
CC(C)CC[C@H](CN(O)C=O)C(=O)N[C@H](C(=O)N(C)C)C(C)(C)C	50 (≈ 17.2 µg/mL)	200 (≈ 68.7 µg/mL)	–
CCCCCC[C@H](CN(O)C=O)C(=O)N[C@H](C(=O)N(C)C)C(C)(C)C	100 (≈ 35.7 µg/mL)	> 200	–
CCCCC[C@H](CN(O)C=O)C(=O)N[C@H](C(=O)N(C)C)C(C)(C)C	25 (≈ 8.59 µg/mL)	25 (≈ 8.59 µg/mL)	–
CCCC[C@@H](C(=O)N[C@H](C(=O)N(C)C)C(C)(C)C)N(O)C=O	> 200	> 200	20
C=CC[C@H](CN(O)C=O)C(=O)N[C@H](C(=O)N(C)C)C(C)(C)C	50 (≈ 15.7 µg/mL)	> 200	–
CCCC[C@H](CCN(O)C=O)C(=O)N[C@H](C(=O)N(C)C)C(C)(C)C	> 200	> 200	–
CC[C@H](CN(O)C=O)C(=O)N[C@H](C(=O)N(C)C)C(C)(C)C	200 (≈ 60.3 µg/mL)	> 200	–
CCCC[C@@H](C(=O)N[C@H](C(=O)N(C)C)C(C)(C)C)C(C)N(O)C=O (some centres undefined)	> 200	> 200	–
CCSC[C@H](CN(O)C=O)C(=O)N[C@H](C(=O)N(C)C)C(C)(C)C	25 (≈ 8.69 µg/mL)	> 200	–
CN(C)C(=O)[C@@H](NC(=O)[C@H](CC1CCCC1)CN(O)C=O)C(C)(C)C	12.5 (≈ 4.44 µg/mL)	12.5 (≈ 4.44 µg/mL)	–
CN(C)C(=O)[C@@H](NC(=O)[C@H](CC1CCCCC1)CN(O)C=O)C(C)(C)C	50 (≈ 18.5 µg/mL)	25 (≈ 9.24 µg/mL)	–
CC(C)C[C@H](CN(O)C=O)C(=O)N[C@H](C(=O)N(C)C)C(C)(C)C	100 (≈ 32.9 µg/mL)	200 (≈ 65.9 µg/mL)	–
CCCC[C@@H](CN(O)C=O)C(=O)N[C@H](C(=O)N(C)C)C(C)(C)C	> 200	> 200	–
CC#CC[C@H](CN(O)C=O)C(=O)N[C@H](C(=O)N(C)C)C(C)(C)C	50 (≈ 16.3 µg/mL)	100 (≈ 32.5 µg/mL)	–
CCC[C@H](CN(O)C=O)C(=O)N[C@H](C(=O)N(C)C)C(C)(C)C	50 (≈ 15.8 µg/mL)	> 200	–
CN(C)C(=O)[C@@H](NC(=O)[C@@H](CN(O)C=O)CN1CCCCC1)C(C)(C)C	> 200	> 200	–
CCCC[C@H](C(=O)N[C@H](C(=O)N(C)C)C(C)(C)C)N(O)C=O	> 200	> 200	30
C[C@H](CN(O)C=O)C(=O)N[C@H](C(=O)N(C)C)C(C)(C)C	> 200	> 200	–
CN(C)C(=O)[C@@H](NC(=O)[C@H](Cc1ccccc1)CN(O)C=O)C(C)(C)C	25 (≈ 9.09 µg/mL)	50 (≈ 18.2 µg/mL)	–
CN(C)C(=O)[C@@H](NC(=O)[C@@H](CN(O)C=O)c1ccc(Cl)cc1)C(C)(C)C	> 200	> 200	–
C=CCC[C@H](CN(O)C=O)C(=O)N[C@H](C(=O)N(C)C)C(C)(C)C	25 (≈ 8.19 µg/mL)	200 (≈ 65.5 µg/mL)	–
CC(C)[C@H](CN(O)C=O)C(=O)N[C@H](C(=O)N(C)C)C(C)(C)C	> 200	> 200	–

From ChEMBL document CHEMBL1146620, “Structure-activity relationships of the peptide deformylase inhibitor BB-3497: modification of the methylene spacer and the P1' side chain” (Bioorg Med Chem Lett, 2003)
